Assay [1] concerns NCI-H1975 (ATCC CRL-5908) cell line comprising an EGFR T790M L858R double mutation. The assay can be described thus: EGFR-SOS cellular inhibition assay (CellTiter-Glo cell proliferation). The format is cell-based. The settings on record: Homo sapiens, 120 h; NCI-H1975 cell proliferation, approximately 5 days; read-out: H1975 IC50. A general note: Cellular ATP, detected with luciferase, serves as a proxy for viable cell number.
Method: A CellTiter-Glo (CTG) luminescent based assay (Promega) is used to assess growth of the cells, as a measurement of the ability of the compounds herein to inhibit EGFR signaling in the cells. […] The day after plating, cells are treated with a dilution series (e.g., a 9 point 3-fold dilution series) of the compounds herein (e.g., approximately 125 μL final volume per well).

A further assay concerns the target SOS1 (Homo sapiens (Human), UniProt Q07889). Kind of assay: Ras-SOS interaction assay (HTRF), K-Ras G13D utilized. The settings on record: K-Ras G13D. The format is binding.

Where two headings read alike, the source gives them in different places.

SOS1, sequence (Q07889 564-1049): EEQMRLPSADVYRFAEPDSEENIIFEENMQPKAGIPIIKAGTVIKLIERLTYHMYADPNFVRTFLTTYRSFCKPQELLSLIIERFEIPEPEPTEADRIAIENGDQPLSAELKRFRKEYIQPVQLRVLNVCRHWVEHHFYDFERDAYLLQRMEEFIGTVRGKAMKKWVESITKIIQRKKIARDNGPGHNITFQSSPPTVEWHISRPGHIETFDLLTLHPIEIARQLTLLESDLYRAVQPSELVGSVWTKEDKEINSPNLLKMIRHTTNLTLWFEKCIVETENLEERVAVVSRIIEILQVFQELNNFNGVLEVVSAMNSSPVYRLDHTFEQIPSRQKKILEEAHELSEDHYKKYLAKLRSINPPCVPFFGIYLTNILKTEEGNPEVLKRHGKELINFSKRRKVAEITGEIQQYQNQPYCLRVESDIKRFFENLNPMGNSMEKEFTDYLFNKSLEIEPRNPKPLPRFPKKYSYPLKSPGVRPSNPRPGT

Take `C[C@H]1Nc2ncnc3c2cc(C2CCS(=O)(=O)CC2)c(=O)n3CCCCCCCN2C3CCC2CC(C3)C(F)(F)c2cccc1c2F` [Compound 113, (11S,15R,4R)-6^6-(1,1-dioxidotetrahydro-2H-thiopyran-4-yl)-32,2,2-trifluoro-4-methyl-6^7,6^8-dihydro-1^8,5-diaza-6(4,8)-pyrido[2,3-d]pyrimidina-1(3,8)-bicyclo[3.2.1]octana-3(1,3)-benzenacyclotridecaphan-6^7-one]: the IC50 (in general, the midpoint of a concentration-inhibition curve) was below 1000 nM in assay [1] and below 100 nM on SOS1 (read-out: SOS1 IC50).

For the molecule `C[C@H]1Nc2ncnc3c2cc(C2CCS(=O)(=O)CC2)c(=O)n3CCCCCC(C#N)CN2CCC(CC2)C(F)(F)c2cccc1c2` (stereo partly drawn) [Compound 114, (4R)-6^6-(1,1-dioxidotetrahydro-2H-thiopyran-4-yl)-2,2-difluoro-4-methyl-6^7-oxo-6^7,6^8-dihydro-5-aza-6(4,8)-pyrido[2,3-d]pyrimidina-1(4,1)-piperidina-3(1,3)-benzenacyclotridecaphane-12-carbonitrile], the IC50 in assay [1] was below 1000 nM; at SOS1 (read-out: SOS1 IC50) it was below 100 nM.

`C[C@H]1Nc2ncnc3c2cc(C2(C#N)CCS(=O)(=O)CC2)c(=O)n3CCCCCCCN2CCC(CC2)C(F)(F)c2cccc1c2` [Compound 116, 4-((4R)-2,2-difluoro-4-methyl-6^7-oxo-6^7,6^8-dihydro-5-aza-6(4,8)-pyrido[2,3-d]pyrimidina-1(4,1)-piperidina-3(1,3)-benzenacyclotridecaphane-6^6-yl)tetrahydro-2H-thiopyran-4-carbonitrile 1,1-dioxide]: the values for the IC50 (in assay [1]; on SOS1 (read-out: SOS1 IC50)) were below 1000 nM and below 100 nM, respectively.

As to `C[C@H]1Nc2ncnc3c2cc(C2CCS(=O)(=O)CC2)c(=O)n3CCCCNC(=O)CN2CCC(CC2)C(F)(F)c2cccc1c2` [Compound 118, (4R)-6^6-(1,1-dioxidotetrahydro-2H-thiopyran-4-yl)-2,2-difluoro-4-methyl-6^7,6^8-dihydro-5,11-diaza-6(4,8)-pyrido[2,3-d]pyrimidina-1(4,1)-piperidina-3(1,3)-benzenacyclotridecaphane-6^7,12-dione], the IC50 in assay [1] was below 1000 nM; on SOS1 (read-out: SOS1 IC50), below 100 nM.

For `C[C@H]1Nc2ncnc3c2cc(N2CCS(=O)(=O)CC2)c(=O)n3CCCCCN2CCC(CC2)CCC(F)(F)c2cccc1c2F` [Compound 119, (3R)-1^6-(1,1-dioxidothiomorpholino)-4^2,5,5-trifluoro-3-methyl-1^7,1^8-dihydro-2-aza-1(4,8)-pyrido[2,3-d]pyrimidina-8(4,1)-piperidina-4(1,3)-benzenacyclotridecaphan-1^7-one], the results for the IC50 (in assay [1]; at SOS1 (read-out: SOS1 IC50)) were below 1000 nM and below 100 nM, respectively.

As for `C[C@H]1Nc2ncnc3nc(c(C4(C#N)CC4)cc23)OCCCCCCN2CCC(CC2)C(F)(F)c2cccc1c2` [Compound 121, (R)-1-(2,2-difluoro-4-methyl-7-oxa-5-aza-6(4,7)-pyrido[2,3-d]pyrimidina-1(4,1)-piperidina-3(1,3)-benzenacyclotridecaphane-6^6-yl)cyclopropane-1-carbonitrile], the half-maximal inhibitory concentration (IC50) was below 1000 nM in assay [1] and below 100 nM at SOS1 (read-out: SOS1 IC50).

For `CC(C)N1CCC(c2cc3c4ncnc3n(c2=O)CCOCCCCN2CCC(CC2)CC(F)(F)c2cccc(c2)[C@@H](C)N4)CC1` [Compound 122, (3R)-5,5-difluoro-1^6-(1-isopropylpiperidin-4-yl)-3-methyl-1^7,1^8-dihydro-12-oxa-2-aza-1(4,8)-pyrido[2,3-d]pyrimidina-7(4,1)-piperidina-4(1,3)-benzenacyclotetradecaphan-1^7-one], the IC50 in assay [1] is below 1000 nM; on SOS1 (read-out: SOS1 IC50), below 100 nM.

With `CC(C)N1CCN(c2cc3c4ncnc3n(c2=O)CCCCCCCN2CCC(CC2)C(F)(F)c2cccc(c2)[C@@H](C)N4)CC1` [Compound 123, (4R)-2,2-difluoro-6^6-(4-isopropylpiperazin-1-yl)-4-methyl-6^7,6^8-dihydro-5-aza-6(4,8)-pyrido[2,3-d]pyrimidina-1(4,1)-piperidina-3(1,3)-benzenacyclotridecaphan-6^7-one], the IC50 in assay [1] is below 1000 nM; at SOS1 (read-out: SOS1 IC50) it was below 100 nM.

On to `C[C@H]1Nc2ncnc3c2cc(C2(C#N)CC2)c(=O)n3CCCCNC(=O)CN2CCC(CC2)C(F)(F)c2cccc1c2` [Compound 124, 1-((4R)-2,2-difluoro-4-methyl-6^7,12-dioxo-6^7,6^8-dihydro-5,11-diaza-6(4,8)-pyrido[2,3-d]pyrimidina-1(4,1)-piperidina-3(1,3)-benzenacyclotridecaphane-6^6-yl)cyclopropane-1-carbonitrile], for which the IC50 was below 1000 nM in assay [1] and below 100 nM at SOS1 (read-out: SOS1 IC50).

Take `C[C@H]1Nc2ncnc3c2cc(C2CCS(=O)(=O)CC2)c(=O)n3CCCCCCCN2CCC(CC2)C(F)(F)c2cccc1c2F` [Compound 125, (4R)-6^6-(1,1-dioxidotetrahydro-2H-thiopyran-4-yl)-3^2,2,2-trifluoro-4-methyl-6^7,6^8-dihydro-5-aza-6(4,8)-pyrido[2,3-d]pyrimidina-1(4,1)-piperidina-3(1,3)-benzenacyclotridecaphan-6^7-one]: the results for the IC50 (in assay [1]; on SOS1 (read-out: SOS1 IC50)) were below 1000 nM and below 100 nM, respectively.

On to `C[C@H]1Nc2ncnc3c2cc(C2(C#N)CC2)c(=O)n3CCCCn2cc(nn2)CN2CCC(CC2)C(F)(F)c2cccc1c2F` [Compound 126, 1-((6R,Z)-5^2,4,4-trifluoro-6-methyl-8^7-oxo-8^7,8^8-dihydro-1^1H-7-aza-8(4,8)-pyrido[2,3-d]pyrimidina-3(1,4)-piperidina-1(4,1)-triazola-5(1,3)-benzenacyclododecaphane-8^6-yl)cyclopropane-1-carbonitrile], for which the values for the IC50 (in assay [1]; on SOS1 (read-out: SOS1 IC50)) were below 1000 nM and below 100 nM, respectively.

On to `C[C@H]1Nc2ncnc3c2cc(C2(C#N)CCS(=O)(=O)CC2)c(=O)n3CCCOCCCCN2CCC(CC2)C(F)(F)c2cccc1c2` [Compound 127, 4-((4R)-2,2-difluoro-4-methyl-6^7-oxo-6^7,6^8-dihydro-10-oxa-5-aza-6(4,8)-pyrido[2,3-d]pyrimidina-1(4,1)-piperidina-3(1,3)-benzenacyclotetradecaphane-6^6-yl)tetrahydro-2H-thiopyran-4-carbonitrile 1,1-dioxide], for which the IC50 in assay [1] is below 1000 nM; on SOS1 (read-out: SOS1 IC50) it was below 100 nM.

In the case of `C[C@H]1Nc2ncnc3c2cc(C2(C#N)CC2)c(=O)n3CC(=O)N(C)CCCCN2CCC(CC2)C(F)(F)c2cccc1c2F` [Compound 128, 1-((4R)-3^2,2,2-trifluoro-4,9-dimethyl-6^7,8-dioxo-6^7, 6^8-dihydro-5,9-diaza-6(4,8)-pyrido[2,3-d]pyrimidina-1(4,1)-piperidina-3(1,3)-benzenacyclotridecaphane-6^6-yl)cyclopropane-1-carbonitrile], the IC50 is below 1000 nM in assay [1] and below 100 nM on SOS1 (read-out: SOS1 IC50).

In the case of `Cc1nc2c3cc(C4(C#N)CC4)c(=O)n(c3n1)CCCCCCOCC(F)(F)c1cccc(c1F)[C@@H](C)N2` [Compound 130, 1-((3R)-4^2,5,5-trifluoro-1^2,3-dimethyl-1^7-oxo-1^7,1^8-dihydro-7-oxa-2-aza-1(4,8)-pyrido[2,3-d]pyrimidina-4(1,3)-benzenacyclotridecaphane-1^6-yl)cyclopropane-1-carbonitrile], the IC50 in assay [1] was in the range of 1000 to 10000 nM; on SOS1 (read-out: SOS1 IC50) it was 100 to 5000 nM.

Regarding `C[C@H]1Nc2ncnc3c2cc(C2(C#N)CC2)c(=O)n3CCCCCC/C=C/CN2CCC(CC2)C(F)(F)c2cccc1c2` [Compound 131, 1-((4R,E)-2,2-difluoro-4-methyl-6^7-oxo-6^7,6^8-dihydro-5-aza-6(4,8)-pyrido[2,3-d]pyrimidina-1(4,1)-piperidina-3(1,3)-benzenacyclopentadecaphan-13-en-6^6-yl)cyclopropane-1-carbonitrile], the IC50 was below 1000 nM in assay [1] and below 100 nM at SOS1 (read-out: SOS1 IC50).

Regarding `C[C@H]1Nc2ncnc3c2cc(C2(C#N)CC2)c(=O)n3CC(=O)NCCCCN2CCC(CC2)C(F)(F)c2cccc1c2` [Compound 132, 1-((4R)-2,2-difluoro-4-methyl-6^7,8-dioxo-6^7,6^8-dihydro-5,9-diaza-6(4,8)-pyrido[2,3-d]pyrimidina-1(4,1)-piperidina-3(1,3)-benzenacyclotridecaphane-6^6-yl)cyclopropane-1-carbonitrile], the IC50 in assay [1] is below 1000 nM; on SOS1 (read-out: SOS1 IC50), below 100 nM.

On to `CC(C)N1CCN(c2cc3c4ncnc3n(c2=O)CCOCCCCN2CCC(CC2)CC(F)(F)c2cccc(c2F)[C@@H](C)N4)CC1` [Compound 135, (3R)-4^2,5,5-trifluoro-1^6-(4-isopropylpiperazin-1-yl)-3-methyl-1^7,1^8-dihydro-12-oxa-2-aza-1(4,8)-pyrido[2,3-d]pyrimidina-7(4,1)-piperidina-4(1,3)-benzenacyclotetradecaphan-1^7-one], for which the values for the IC50 (in assay [1]; on SOS1 (read-out: SOS1 IC50)) were below 1000 nM and below 100 nM, respectively.

On to `C[C@H]1Nc2ncnc3nc(c(C4(C#N)CC4)cc23)OCCCCCCCN2CCC(CC2)C(F)(F)c2cccc1c2` [Compound 137, (R)-1-(2,2-difluoro-4-methyl-7-oxa-5-aza-6(4,7)-pyrido[2,3-d]pyrimidina-1(4,1)-piperidina-3(1,3)-benzenacyclotetradecaphane-6^6-yl)cyclopropane-1-carbonitrile], for which the values for the IC50 (in assay [1]; at SOS1 (read-out: SOS1 IC50)) were below 1000 nM and below 100 nM, respectively.

With `COc1cc2nc(C)nc3c2cc1OCCOCCOCCOCCOCCNCc1ccc(F)cc1C1=CC=C(S1)C(C)N3` (centres unmarked) [Compound 138, 1^5-fluoro-5^7-methoxy-5^2,3-dimethyl-6,9,12,15,18-pentaoxa-4,21-diaza-5(4,6)-quinazolina-2(2,5)-thiophena-1(1,2)-benzenacyclodocosaphane], the IC50 in assay [1] is below 1000 nM; at SOS1 (read-out: IC50 value against SOS1), below 50 nM; on SOS1 (read-out: SOS1 IC50), below 100 nM.

With `CC(C)N1CCC(c2cc3c4ncnc3n(c2=O)CCCCCCN2CCC(CC2)CC(F)(F)c2cccc(c2F)[C@@H](C)N4)CC1` [Compound 140, (3R)-4^2,5,5-trifluoro-1^6-(1-isopropylpiperidin-4-yl)-3-methyl-1^7,1^8-dihydro-2-aza-1(4,8)-pyrido[2,3-d]pyrimidina-7(4,1)-piperidina-4(1,3)-benzenacyclotridecaphan-1^7-one], the values for the IC50 (in assay [1]; at SOS1 (read-out: SOS1 IC50)) were below 1000 nM and below 100 nM, respectively.

For the origin of these results see patent US20230339952A1, “MACROCYCLIC HETEROCYCLES AND USES THEREOF” (Kumquat Biosciences Inc., priority 2022, published 2023).
